Measured values reported in patent US11053204B2, “Pyrimidinyloxy benzene derivatives as herbicides” (FMC Corporation, priority 2015, dated 2021).

Columns and labels:
Format in all cases: in vivo
[1] = system: pigweed (Amaranthus retroflexus); test: Test C preemergence, plant response rating; details: Preemergence
[2] = system: galium (catchweed bedstraw, Galium aparine); test: Test A postemergence, visual injury rating; details: Galium, post-emergence, 240 h, 0 is no effect, 100 is complete control, read-out: Galium plant response rating (0 to 100 scale)
Outline: (§1)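 Injury scores run from 0, no effect, to 100, complete control, judged by eye against untreated plants roughly 10 days after treatment. Chemicals carried a surfactant in a non-phytotoxic solvent and went onto loam–sand soil preemergence or onto one- to two-leaf seedlings postemergence.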

kochia (Kochia scoparia) [3] = test: Test A postemergence, visual injury rating; details: Bassia scoparia, post-emergence, 240 h, 0 is no effect, 100 is complete control, read-out: Kochia plant response rating (0 to 100 scale)
Outline: as §1

[4] = system: giant foxtail (Setaria faberii); test: Test A postemergence, visual injury rating; details: Setaria faberi, post-emergence, 240 h, 0 is no effect, 100 is complete control, read-out: Foxtail, Giant plant response rating (0 to 100 scale)
Outline: as §1

[5] = system: wheat (Triticum aestivum); test: Test A postemergence, visual injury rating; details: Triticum aestivum, post-emergence, 240 h, 0 is no effect, 100 is complete control, read-out: Wheat plant response rating (0 to 100 scale)
Outline: as §1

[6] = system: barnyardgrass (Echinochloa crus-galli); test: Test A postemergence, visual injury rating; details: Echinochloa crus-galli, post-emergence, 240 h, 0 is no effect, 100 is complete control, read-out: Barnyardgrass plant response rating (0 to 100 scale)
Outline: as §1

corn (Zea mays) = test: Test A postemergence, visual injury rating; details: Zea mays, post-emergence, 240 h, 0 is no effect, 100 is complete control, read-out: Corn plant response rating (0 to 100 scale)
Outline: as §1

[7] = system: ragweed (common ragweed, Ambrosia elatior); test: Test A postemergence, visual injury rating; details: Ambrosia artemisiifolia, post-emergence, 240 h, 0 is no effect, 100 is complete control, read-out: Ragweed plant response rating (0 to 100 scale)
Outline: as §1

[8] = system: Italian ryegrass (Lolium multiflorum); test: Test A postemergence, visual injury rating; details: Lolium multiflorum, post-emergence, 240 h, 0 is no effect, 100 is complete control, read-out: Ryegrass, Italian plant response rating (0 to 100 scale)
Outline: as §1

[9] = system: pigweed (Amaranthus retroflexus); test: Test A postemergence, visual injury rating; details: Amaranthus retroflexus, post-emergence, 240 h, 0 is no effect, 100 is complete control, read-out: Pigweed plant response rating (0 to 100 scale)
Outline: as §1

[10] = system: blackgrass (Alopecurus myosuroides); test: Test A postemergence, visual injury rating; details: Alopecurus myosuroides, post-emergence, 240 h, 0 is no effect, 100 is complete control, read-out: Blackgrass plant response rating (0 to 100 scale)
Outline: as §1

kochia (Kochia scoparia) [11] = test: Test A preemergence, visual injury rating; details: Bassia scoparia, pre-emergence, 240 h, 0 to 100 scale (0 no effect, 100 complete control), read-out: Kochia plant response rating
Outline: as §1

[12] = system: giant foxtail (Setaria faberii); test: Test A preemergence, visual injury rating; details: Setaria faberi, pre-emergence, 240 h, 0 to 100 scale (0 no effect, 100 complete control), read-out: Foxtail, Giant plant response rating
Outline: as §1

[13] = system: barnyardgrass (Echinochloa crus-galli); test: Test A preemergence, visual injury rating; details: Echinochloa crus-galli, pre-emergence, 240 h, 0 to 100 scale (0 no effect, 100 complete control), read-out: Barnyardgrass plant response rating
Outline: as §1

[14] = system: ragweed (common ragweed, Ambrosia elatior); test: Test A preemergence, visual injury rating; details: Ambrosia artemisiifolia, pre-emergence, 240 h, 0 to 100 scale (0 no effect, 100 complete control), read-out: Ragweed plant response rating
Outline: as §1

[15] = system: Italian ryegrass (Lolium multiflorum); test: Test A preemergence, visual injury rating; details: Lolium multiflorum, pre-emergence, 240 h, 0 to 100 scale (0 no effect, 100 complete control), read-out: Ryegrass, Italian plant response rating
Outline: as §1

[16] = system: pigweed (Amaranthus retroflexus); test: Test A preemergence, visual injury rating; details: Amaranthus retroflexus, pre-emergence, 240 h, 0 to 100 scale (0 no effect, 100 complete control), read-out: Pigweed plant response rating
Outline: as §1

O=C(OCCC(F)(F)F)c1c(Br)cccc1Oc1ncc(Cl)cn1 [Compound 26, 3,3,3-trifluoropropyl 2-bromo-6-[(5-chloro-2-pyrimidinyl)oxy]benzoate]
Plant response rating, Pigweed ([1]; 125 g ai/ha, scale of 0 to 100): 100
Plant response rating, Pigweed ([1]; 16 g ai/ha, scale 0 to 100): 100
Plant response rating, Pigweed ([1]; 31 g ai/ha, scale 0 to 100): 100
Plant response rating, Pigweed ([1]; 62 g ai/ha, scale 0 to 100): 100
pest or weed control at 125 g/ha ([2]; 125 g ai/ha): 100%
pest or weed control at 500 g/ha ([2]; 500 g ai/ha): 100%
pest or weed control at 125 g/ha (kochia (Kochia scoparia) [3]; 125 g ai/ha): 100%
pest or weed control at 500 g/ha (kochia (Kochia scoparia) [3]; 500 g ai/ha): 100%
pest or weed control at 125 g/ha ([4]; 125 g ai/ha): 100%
pest or weed control at 500 g/ha ([4]; 500 g ai/ha): 100%
plant injury at 125 g/ha ([5]; 125 g ai/ha): 40%
plant injury at 500 g/ha ([5]; 500 g ai/ha): 90%
pest or weed control at 125 g/ha ([6]; 125 g ai/ha): 100%
pest or weed control at 500 g/ha ([6]; 500 g ai/ha): 100%
plant injury at 125 g/ha (corn (Zea mays); 125 g ai/ha): 60%
plant injury at 500 g/ha (corn (Zea mays); 500 g ai/ha): 100%
pest or weed control at 125 g/ha ([7]; 125 g ai/ha): 30%
pest or weed control at 500 g/ha ([7]; 500 g ai/ha): 60%
pest or weed control at 125 g/ha ([8]; 125 g ai/ha): 70%
pest or weed control at 500 g/ha ([8]; 500 g ai/ha): 80%
pest or weed control at 125 g/ha ([9]; 125 g ai/ha): 100%
pest or weed control at 500 g/ha ([9]; 500 g ai/ha): 100%
pest or weed control at 125 g/ha ([10]; 125 g ai/ha): 100%
pest or weed control at 500 g/ha ([10]; 500 g ai/ha): 100%
pest or weed control at 125 g/ha (kochia (Kochia scoparia) [11]; 125 g ai/ha): 100%
pest or weed control at 500 g/ha (kochia (Kochia scoparia) [11]; 500 g ai/ha): 100%
pest or weed control at 125 g/ha ([12]; 125 g ai/ha): 100%
pest or weed control at 500 g/ha ([12]; 500 g ai/ha): 100%
pest or weed control at 125 g/ha ([13]; 125 g ai/ha): 100%
pest or weed control at 500 g/ha ([13]; 500 g ai/ha): 100%
pest or weed control at 125 g/ha ([14]; 125 g ai/ha): 20%
pest or weed control at 500 g/ha ([14]; 500 g ai/ha): 20%
pest or weed control at 125 g/ha ([15]; 125 g ai/ha): 70%
pest or weed control at 500 g/ha ([15]; 500 g ai/ha): 100%
pest or weed control at 125 g/ha ([16]; 125 g ai/ha): 100%
pest or weed control at 500 g/ha ([16]; 500 g ai/ha): 100%
